Data from the NIST ThermoML archive (doi:10.1016/j.jct.2006.10.006).
± gives the expanded uncertainty stated by the source.

How the values were obtained:
[1] = Crystal 1; DTA
[2] = Molar enthalpy of transition or fusion; details: Crystal; DSC
[3] = molar enthalpy of vaporization or sublimation; details: 298.15 K; Crystal; Static calorimetry

Triple point temperature [1]: 345.9 ± 0.5 K
Molar enthalpy of transition or fusion [2]: 5.23 ± 0.234 kcal/mol
molar enthalpy [3]: 34.2 ± 1.43 kcal/mol
SMILES: CCOC(=S)NC(=O)c1cccs1 [carbamothioic acid, N-(2-thienylcarbonyl)-, O-ethyl ester]
